Where two headings read alike, the source gives them in different places. Marks after values point to notes of the source that are not given here.
Columns and labels:
[1] = test system: Adult S. mansoni; experiment: In vitro antischistosomal activity on adult worms; format: cell-based, Schistosoma mansoni; conditions: for S. mansoni Mean Survival Time / Time for the death of 100% worms: adult S. mansoni, observation up to 8 h; for S. mansoni Mean Survival Time: single dose 100 µg/mL; for Time for the death of 100% worms / Mean (±SD) survival time – Adult S. mansoni: 100 µg/mL; for Mean (±SD) survival time – Adult S. mansoni: observation up to 8 h (Table S1)
Method in brief: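 NMRI-strain adult worms, perfused from hamsters 42–47 days post-infection, held in RPMI 1640 (25 mM Hepes) with Tween 80/DMSO vehicle at 37 °C, 5% CO2 and exposed to 100 µg/mL drug, in duplicate. Moving worms counted hourly up to 8 h; no contraction over 30 s scored dead. Mean survival time from Kaplan–Meier analysis.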

[2] = test system: P. falciparum F32-TEM (artemisinin-sensitive strain); experiment: Standard chemosensitivity assay (SYBR Green I), F32-TEM; format: cell-based, Plasmodium falciparum; conditions: Plasmodium falciparum
Procedure: (§1) F32-ART5, an artemisinin-resistant strain and F32-TEM, an artemisinin-sensitive strain, were obtained from the parental clone F32-Tanzania, respectively under regular drug pressure cycles of increasing artemisinin concentrations for 5 years and without any artemisinin pressure. After these drug pressure cycles allowing selection of the F32-ART5 strain, regular drug pressures were performed to maintain its phenotype. […] Briefly, parasites were cultured in RPMI 1640 (Fisher Scientific, Waltham, Illkirch-Graffenstaden, France) supplemented with 5% type AB human serum (Etablissement français du Sang, Toulouse, France) and adjusted at a parasitemia of 1% and 2% hematocrit with type O human at 37 °C and 5% CO2. Parasite development was daily monitored by Giemsa staining.
(§2) Briefly, for the determination of IC50 values, the chemosensitivity assay was carried out in 96-well culture plates on D-sorbitol ring-stage synchronized parasites and antiplasmodial activities were evaluated using the SYBR Green I method. Drug testing was performed in triplicates in a dose range of 5 to 7 concentrations. […] Parasites were left to proliferate with the given compounds for 48 h at 37 °C and 5% CO2. After this period, pellets were washed 3 times in sterile PBS prior to putting the plates at −20 °C overnight to lyse all red blood cells. The following day, the plates were thawed at room temperature, 100 µL of each well was transferred into a black 96-well plate to which another 100 µL of 2× PBS-diluted SYBR Green I (Sigma-Aldrich) was added and left to incubate for 2 h at room temperature prior to reading the plates on BioTek FL× 800 Microplate Fluorescence Reader (λexcitation = 485 nm, λemission = 528 nm).
(§3) IC50 values were determined using GraphPad Prism by drawing the curve % inhibition vs. [Drug] and using a four-parameter dose–response curve with the following equation: Y=Bottom+ Top−Bottom/1+x^Hill Slope/IC50Hill Slope

[3] = set-up: method as in PMID 23051106, doi:10.1039/c2py20447a; conditions: cited from earlier work
[4] = Cytotoxicity assay (MTT); conditions: African green monkey
Procedure: (§4) Vero cells were cultured in MEM (Dutscher, Brumath, France) supplemented with 10% fetal bovine serum, 1× non-essential amino acids, 100 U/mL, 100 µg/mL penicillin/streptomycin, and 2 mM L-glutamine at 37 °C in a humidified 5% CO2 atmosphere. […] At this time, each well was microscope-examined for detection of possible precipitate formation prior to remove the supernatant by flicking the plate. 100 µL of a 0.5 mg/mL PBS-dissolved MTT tetrazolium (stock solution at 5 mg/mL) was then added to each well [48]. The plates were then incubated for 1 h at 37 °C and 5% CO2 prior to removing the supernatant and adding 100 µL of DMSO. Plates were gently shaken to dissolve formazan crystals resulting from the MTT tetrazolium reduction by living cells and read at 570 nm with BioTek µQuant Microplate Spectrophotometer.

[5] = test system: Vero cells; experiment: Cytotoxicity assay (MTT); conditions: ratio cytotoxicity (Vero)/activity on Plasmodium
Procedure: as §4

[6] = test system: P. falciparum F32-ART5 (artemisinin-resistant strain); experiment: Standard chemosensitivity assay (SYBR Green I), F32-ART5; format: cell-based, Plasmodium falciparum; conditions: Plasmodium falciparum, F32, 48 h, read-out: P. falciparum Strains Mean IC50, F32-ART5, 48 h; ^1 n = 1, ^2 n = 2
Procedure: as §1, §2, §3

[7] = test system: P. falciparum chloroquine-resistant strain FcB1-Columbia; experiment: Antiplasmodial screen at 10 µM and chemosensitivity assay (SYBR Green I), FcB1-Columbia; format: cell-based, Plasmodium falciparum
[8] = Homolysis of the NO–C bond measured by EPR
Procedure: Homolysis rate constants kd’ were measured by EPR and estimated using Equation (1) as reported many times in the literature. Further, Ea and kd were estimated using Equation (2). (1) ln([nitroxide]∞−[nitroxide]t/[nitroxide]∞)=−kd·t (2) Ea=−RT ln([…] kd′ )

[9] = test system: P. falciparum F32-ART5 (artemisinin-resistant); experiment: Recrudescence assay, F32-ART5; format: cell-based, Plasmodium falciparum; conditions: artemisinin 18 µM, (RS/SR)-2F 5 µM; for Median (Range) Recrudescence Time, F32-ART5: 48 h treatment, followed 30 days
Procedure: (§5) The lead compound, (RS/SR)-2F, was tested in a recrudescence assay, to assess cross-resistance with artemisinin, according to Ménard et al.. Briefly, F32-TEM and F32-ART5 parasites were synchronized at ring-stage by D-sorbitol treatment prior to treating them with the drug of interest for 48 h, then washed and allowed to grow in drug-free medium. Parasitemia was monitored every other day for 30 days to determine the day when parasite cultures reached the t0 initial parasitemia. […] Artemisinin was used as control to confirm differences in recrudescence times between both strains. Three independent experiments were performed for (RS/SR)-2F and artemisinin tested in parallel.

[10] = test system: P. falciparum F32-TEM (artemisinin-sensitive); experiment: Recrudescence assay, F32-TEM; format: cell-based, Plasmodium falciparum; conditions: 48 h treatment; artemisinin 18 µM, (RS/SR)-2F 5 µM; followed 30 days
Procedure: as §5

[11] = F32, 48 h, read-out: P. falciparum Strains Mean IC50, F32-TEM, 48 h, ^1 n = 1, ^2 n = 2
[12] = Cytotoxicity Mean IC50, Vero cell lines, 48 h, MTT
[13] = Plasmodium falciparum, FCB1, read-out: IC50 on P. falciparum, FcB1-Columbia strain
[14] = read-out: IC50 on P. falciparum, FcB1-Columbia strain
[15] = Plasmodium falciparum, FcB1-Columbia strain, read-out: IC50 on P. falciparum

| SMILES | S. mansoni Mean Survival Time [1] [h] | IC50 [2, 11] [µM] | IC50 at 48 h [4, 12] [µM] | Selectivity Index [5] | IC50 [6] [µM] | Time for the death of 100% worms [1] [h] | IC50 at 48 h ([4]; Vero cells) [µM] | IC50 [7, 15] [µM] | also measured |
| --- | --- | --- | --- | --- | --- | --- | --- | --- | --- |
| CCOP(=O)(OCC)[C@@H](N(O[C@@H](C)c1ccncc1)C(C)(C)C)C(C)(C)C (relative stereo) [(RS/SR)-1a] | 1.2 ± 0.1 | 7.6 | 28 ± 29 | 3 | 11 | – | – | – | T1/2 in vitro at 37 °C ([3]; aqueous medium): 48 to 96 h; T1/2 in vitro at 37 °C ([3]; tert-butylbenzene): 408 h; IC50 [7, 13]: 3.8 µM; IC50 [7, 14]: > 3 µM |
| CC(ON1C(C)(C)CC(O)CC1(C)C)c1cc(-c2ccccn2)nc(-c2ccccn2)c1 (racemic) [(R/S)-8F, 1-(1-([2,2′:6′,2′′-Terpyridin]-4′-yl)ethoxy)-2,2,6,6-tetramethylpiperidin-4-ol] | 5.0 ± 0.0 | 1.3 | – | 0.5 | 1.1 | 5 | 0.7 ± 0.4 | 0.14 | IC50 ([2]; F32, read-out: IC50 on the F32 strains, F32-TEM and F32-ART5 taken together): ~1 µM; activation energy Ea ([8]; t-BuPh): 133.3 ^k kJ/mol; re-estimated homolysis rate constant kd at 120 °C ([8]; t-BuPh): 0.46 10^−3 s^−1; homolysis rate constant kd′ ([8]; t-BuPh, 111 °C): 1.9 10^−4s^−1; half-life ([8]; tert-butylbenzene, half-lifetime t1/2 at 37 °C, t-BuPh): 941 days; half-life ([8]; tert-butylbenzene, t1/2 at 37 °C): 913 days |
| C[C@@H]1CC[C@H]2[C@@H](C)C(=O)O[C@@H]3O[C@@]4(C)CC[C@@H]1[C@]32OO4 [Artemisinin, reference compound] | – | 0.02 ± 0.001 | – | 8000 | 0.02 ± 0.002 | – | 160 ± 12 | 0.04 ± 0.007 | Median (Range) Recrudescence Time, F32-ART5 [9]: 9 (7–11) Days; Mean ± SEM Difference of Recrudescence Time ([9]; F32-TEM versus F32-ART5): > 16.3 ± 3.7 days; Median (Range) Recrudescence Time, F32-TEM [10]: > 30 (16→30) Days |
| CCOP(=O)(OCC)C(N(OC(C)c1cc(-c2ccccn2)nc(-c2ccccn2)c1)C(C)(C)CO)C(C)(C)C (stereo not drawn) [(RS/SR)-2F, Diethyl(1-((1-([2,2′:6′,2′′-terpyridin]-4′-yl)ethoxy)(1-hydroxy-2-methylpropan-2-yl)amino)-2,2-dimethylpropyl)phosphonate] | 2.1 ± 0.1 | 0.6 ± 0.1 | 0.8 ± 0.3 | 1 | 0.5 ± 0.1 | – | – | – | Median (Range) Recrudescence Time, F32-ART5 [9]: 16 (15–17) Days; IC50 [7, 14]: 0.3 µM; activation energy Ea ([8]; MeOH/water 1:1 pH = 7.4): 118.2 kJ/mol; re-estimated homolysis rate constant kd at 120 °C ([8]; MeOH/water 1:1 pH = 7.4): 46.7 10^−3 s^−1; half-lifetime t1/2 at 37 °C ([8]; MeOH/water 1:1 pH = 7.4 (aqueous medium)): 64.8 h; homolysis rate constant kd′ ([8]; MeOH/water 1:1 pH = 7.4, 81 °C): 8.7 10^−4s^−1; half-life ([8]; buffer, pH 7.4, half-lifetime t1/2 at 37 °C, MeOH/water 1:1 pH = 7.4 (aqueous medium)): 2 to 4 days; half-life ([8]; half-lifetime t1/2 at 37 °C, t-BuPh): 3 to 5 days; activation energy Ea ([8]; t-BuPh): 119.7 kJ/mol; half-lifetime t1/2 at 37 °C ([8]; t-BuPh): 115 h; re-estimated homolysis rate constant kd at 120 °C ([8]; t-BuPh): 29.9 10^−3 s^−1; homolysis rate constant kd′ ([8]; t-BuPh, 81 °C): 5.3 10^−4s^−1; Median (Range) Recrudescence Time, F32-TEM [10]: > 30 days |
| CCc1cc(-c2ccccn2)nc(-c2ccccn2)c1 [compound 22, 4′-ethyl terpyridine] | >8 | 0.24 | – | 22 | 0.23 | > 8 | 5.3 ± 4.5 | 0.91 ± 0.06 | Mean (±SD) survival time – Adult S. mansoni [1]: > 8 h |
| CCOP(=O)(OCC)[C@@H](N(O[C@H](C)c1ccncc1)C(C)(C)C)C(C)(C)C (relative stereo) [(RR/SS)-1a] | >8 | 15 | 17 ± 7 | 1 | 16 | > 8 | – | – | Mean (±SD) survival time – Adult S. mansoni [1]: > 8 h; T1/2 in vitro at 37 °C ([3]; aqueous medium): 48 to 96 h; T1/2 in vitro at 37 °C ([3]; tert-butylbenzene): 408 h |
| CCOP(=O)(OCC)C(N(OC(C)c1cc(-c2ccccn2)nc(-c2ccccn2)c1)C(C)(C)C(=O)O)C(C)(C)C (stereo not drawn) [(RS/SR)-4F, 2-((1-([2,2′:6′,2′′-Terpyridin]-4′-yl)ethoxy)(1-(diethoxyphosphoryl)-2,2-dimethylpropyl)amino)-2-methylpropanoic acid] | 5.2 ± 0.2 | 2.9 | 15 ± 5 | 4 | 4.7 | 7 | – | – | IC50 [7, 13]: 2.9 µM |
| CCOP(=O)(OCC)C(N(OC(C)c1cc(-c2ccccn2)nc(-c2ccccn2)c1)C(C)(C)C=O)C(C)(C)C (stereo not drawn) [(RS/SR)-7F, Diethyl(1-((1-([2,2′:6′,2′′-terpyridin]-4′-yl)ethoxy)(2-methyl-1-oxopropan-2-yl)amino)-2,2-dimethylpropyl)phosphonate] | 2.7 ± 0.1 | 1.3 | 0.9 ± 0.4 | 0.6 | 1.4 | 3 | – | – | – |

Source: PMC7503767, “Alkoxyamines Designed as Potential Drugs against Plasmodium and Schistosoma Parasites” (Molecules, 2020)
